Values of other authors as cited in patent publication US20130202712A1, “Compositions And Methods For Treating Or Preventing Immuno-Inflammatory Disease” (VINDICO NANOBIO TECHNOLOGY, INC., priority 2010, published 2013).

Details: free resveratrol

Solubility in water: very low solubility in water
SMILES: Oc1ccc(C=Cc2cc(O)cc(O)c2)cc1 [resveratrol, 3,5,4′-trihydroxystilbene]
